Laboratory results published in patent publication US20240025918A1, “KRAS G12D Inhibitors” (Jacobio Pharmaceuticals Co., Ltd, priority 2020, published 2024).

Legend:
AsPC-1 = experiment: Cell growth inhibition assay, AsPC-1 (CellTiter-Glo); type: cell-based; details: Homo sapiens, ASPC1, 144 h; AsPC-1 cell viability, 6 days incubation
Method: AsPC-1 cultured in RPMI-1640 medium (Gibco) containing 10% fetal bovine serum (Gibco). Cells in culture medium were plated in 96-well plates at a concentration of 1000 cells/well (100 μL/well) and allowed to attach overnight.
(§1) The next day, compounds were diluted in culture medium and added to the plates. After 6 days incubation in a 37° C./5% CO2 cell incubator, the cell viability was detected by CellTiter-Glo® Luminescent Cell Viability Assay kit (Promega). Luminescent signals were read on Tecan Spark multimode microplate reader and analyzed using a 4-parameter logistic model to calculate IC50 values.

[1] = target: T1, GDP-loaded HIS-KRAS(G12D, aa 1-169) (Homo sapiens, UniProt P01116, G12D); experiment: SOS1 catalyzed nucleotide exchange assay (TR-FRET); type: biochemical; details: 4 hours at 25° C.
T1 construct: GDP-loaded HIS-KRAS(G12D, aa 1-169)
T1 sequence (P01116 1-169 isoform P01116-2 G12D): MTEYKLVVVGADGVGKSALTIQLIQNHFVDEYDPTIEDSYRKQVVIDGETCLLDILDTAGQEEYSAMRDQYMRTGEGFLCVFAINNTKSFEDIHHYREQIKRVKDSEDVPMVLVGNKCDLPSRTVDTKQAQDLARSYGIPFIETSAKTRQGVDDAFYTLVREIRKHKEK
Method: GDP-loaded HIS-KRAS(G12D, aa 1-169) was pre-incubated with a compound in the presence of 10 nM GDPin a 384-well plate (Greiner) for 15 min, then purified SOS1 ExD(Flag tag, aa 564-1049), BODIPY™ FL GTP (Invitrogen) and MAb (monoclonal antibody) Anti 6HIS-Tb cryptate Gold (Cisbio) were added to the assay wells (Final concentration: 1.5 nM GDP-loaded HIS-KRAS(G12D), 5 nM GDP, 0.5 μM SOS1 ExD, 80 nM BODIPY™ FL GTP, 52.5 ng/mL MAb Anti 6HIS-Tb cryptate Gold) and incubated for 4 hours at 25° C. Wells containing same percent of DMSO served as vehicle control, and wells without KRAS served as low control. TR-FRET signals were read on Tecan Spark multimode microplate reader. The parameters were F486: Excitation 340 nm, Emission 486 nm, Lag time 100 μs, Integration time 200 μs; F515: Excitation 340 nm, Emission 515 nm, Lag time 100 μs, Integration time 200 μs. TR-FRET ratios for each individual wells were calculated by equation: TR-FRET ratio=(Signal F515/Signal F486)*10000. The percent of activation of compounds treated wells were normalized between vehicle control and low control (% Activation=(TR-FRET ratioCompound treated−TR-FRET ratioLow control)/(TR-FRET ratioVehicle control−TR-FRET ratioLow control)*100%). Then the data were analyzed by fitting a 4-parameter logistic model or calculating in Excel to calculate IC50 values.

[2] = test system: AGS cells expressing KRAS G12D; experiment: Phospho-ERK1/2(THR202/TYR204) HTRF assay; type: cell-based; details: Homo sapiens; Phospho-ERK1/2 in AGS cells, 2 hours incubation
Method: AGS cells expressing KRAS G12D were cultured in F12K medium (Gibco) containing 10% fetal bovine serum (Gibco). The AGS cells in culture medium were seeded in 96-well plates at a concentration of 40,000 cells/well and then put in a 37° C./5% CO2 cell incubator to incubate overnight. The next day, culture medium was removed and the compound diluted in assay medium (F12K, 0.1% FBS) was added in each well. After 2 hours incubation in a 37° C./5% CO2 cell incubator, the assay medium in 96-well plates was removed, then 50 μL of 1× blocking reagent-supplemented lysis buffer (Cisbio) was added and the plates were incubated at 25° C. for 45 min with shaking. 10 μL of cell lysates from the 96-well plates were transferred to a 384-well plate (Greiner) containing 2.5 μL/well HTRF® pre-mixed antibodies (Cisbio 64AERPEH). Incubate 4 hours at 25° C. and then read HTRF signals on Tecan Spark multimode microplate reader. The data were analyzed using a 4-parameter logistic model to calculate IC50 values.

[3] = target: T2, GppNp-loaded HIS-KRAS(G12D, aa 1-169) and cRAF RBD (Homo sapiens, UniProt P01116, G12D); experiment: GTP-KRAS and cRAF interaction assay (HTRF); type: biochemical; details: 2 hours at 25° C.
T2 construct: GppNp-loaded HIS-KRAS(G12D, aa 1-169)
T2 sequence (P01116 1-169 isoform P01116-2 G12D): as above
Method: GppNp-loaded HIS-KRAS(G12D, aa 1-169) was pre-incubated with a compound in the presence of 200 μM GTP in a 384-well plate (Greiner) for 15 min, then cRAF RBD(GST tag, aa 50-132, CreativeBioMart), MAb Anti GST-d2 (Cisbio) and MAb Anti 6HIS-Tb cryptate Gold (Cisbio) were added to the assay wells (Final concentration: 2.0 nM GppNp-loaded HIS-KRAS(G12D), 100 μM GTP, 35 nM cRAF RBD, 1 μg/mL MAb Anti GST-d2, 52.5 ng/mL MAb Anti 6HIS-Tb cryptate Gold) and incubated for 2 hours at 25° C. Wells containing same percent of DMSO served as vehicle control, and wells without KRAS served as low control. HTRF signals were read on Tecan Spark multimode microplate reader and HTRF ratios were calculated under manufacturer's instructions. The percent of activation of compounds treated wells were normalized between vehicle control and low control (% Activation=(HTRF ratioCompound treated−HTRF ratioLow control)/(HTRF ratioVehicle control−HTRF ratioLow control)*100%). Then the data were analyzed by fitting a 4-parameter logistic model or calculating in Excel to calculate IC50 values.

AGS = experiment: Cell growth inhibition assay, AGS (CellTiter-Glo); type: cell-based; details: Homo sapiens, 144 h; AGS cell viability, 6 days incubation
Method: AGS cultured in F12K medium (Gibco) containing 10% fetal bovine serum (Gibco). Cells in culture medium were plated in 96-well plates at a concentration of 500 cells/well (100 μL/well) and allowed to attach overnight.
as §1

SMILES | IC50 (AsPC-1) [nM] | IC50 [1] [nM] | IC50 [2] [nM] | IC50 [3] [nM] | IC50 (AGS) [nM]
C#Cc1cccc2cc(O)cc(-c3c(F)cc4c(N5CC6CCC(C5)N6)nc(OCC5(CN6CC7COCC7C6)CC5)nc4c3F)c12 (centres unmarked) [Compound 24] | 36 | 1.26 | 2.48 | 25.2 | 3.66
C#Cc1cccc2cc(O)cc(-c3c(F)cc4c(N5CC6CCC(C5)N6)nc(OCC5(CN6CCOC7(CCC7)C6)CC5)nc4c3F)c12 [Compound 6] |  | 66.2 |  | 437 | 
C#Cc1cccc2cc(O)cc(-c3c(F)cc4c(N5CC6CCC(C5)N6)nc(OCC5(CN6CC7(CCCO7)C6)CC5)nc4c3F)c12 [Compound 44] |  | 35.7 |  |  | 
C#Cc1c(F)ccc2cc(O)cc(-c3c(Cl)cc4c(N5CC6CCC(C5)N6)nc(OCC5(CN6CC7CC6CO7)CC5)nc4c3F)c12 (single isomer, unassigned) [Compound 4B] |  | 0.31 |  | 9.19 | 
CCc1c(F)ccc2cc(O)cc(-c3c(C(F)(F)F)cc4c(N5CC6CCC(C5)N6)nc(OCC5(CN6C[C@@H]7C[C@H]6CO7)CC5)nc4c3F)c12 [Compound 43] |  | 4.64 |  | 436 | 
C#Cc1cccc2cc(O)cc(-c3c(F)cc4c(N5CC6CCC(C5)N6)nc(OCC5(CN6CCC7(CCOCC7)C6)CC5)nc4c3F)c12 [Compound 55] | 77 | 1.37 | 5.39 | 23.1 | 7.71
C#Cc1c(F)ccc2cc(O)cc(-c3c(C(C)C)cc4c(N5CC6CCC(C5)N6)nc(OCC5(CN6C[C@@H]7C[C@H]6CO7)CC5)nc4c3F)c12 [Compound 38] |  | 1.15 |  | 5.82 | 
C#Cc1cccc2cc(O)cc(-c3c(F)cc4c(N5CC6CCC(C5)N6)nc(OCC5(CN6CCOC7(CC7)C6)CC5)nc4c3F)c12 (single isomer, unassigned) [Compound 2A] |  | > 100 |  | > 10000 | 
C#Cc1cccc2cc(O)cc(-c3c(F)cc4c(N5CC6CCC(C5)N6)nc(OCC5(CN6CCc7ccccc7C6)CC5)nc4c3F)c12 [Compound 16] |  | 27.3 |  |  | 
C#Cc1cccc2cc(O)cc(-c3c(F)cc4c(N5CC6CCC(C5)N6)nc(OCC5(CN6CCC7(CC6)CC7(F)F)CC5)nc4c3F)c12 (single isomer, unassigned) [Compound 3A] |  | > 100 |  | 9080 | 
C#Cc1cccc2cc(O)cc(-c3c(F)cc4c(N5CC6CCC(C5)N6)nc(OCC5(CN6CCOC7(CC7)C6)CC5)nc4c3F)c12 [Compound 2] |  | 26 |  | 228 | 
C#Cc1cccc2cc(O)cc(-c3c(F)cc4c(N5CC6CCC(C5)N6)nc(OCC5(CN6CC7(CC(O)C7)C6)CC5)nc4c3F)c12 [Compound 18] |  | 0.975 |  | 77.8 | 
C#Cc1cccc2cc(O)cc(-c3c(F)cc4c(N5CC6CCC(C5)N6)nc(OCC5(CN6CC7CC6CO7)CC5)nc4c3F)c12 (single isomer, unassigned) [Compound 13A] |  | > 100 | 271 | > 10000 | 
C#Cc1cccc2cc(O)cc(-c3c(F)cc4c(N5CC6CCC(C5)N6)nc(OCC5(CN6CC7(CC(OC)C7)C6)CC5)nc4c3F)c12 [Compound 49] |  | 3.95 | 46.4 | 73.2 | 
C#Cc1c(F)ccc2cc(O)cc(-c3c(SC(F)(F)F)cc4c(N5CC6CCC(C5)N6)nc(OCC5(CN6C[C@@H]7C[C@H]6CO7)CC5)nc4c3F)c12 [Compound 42] |  | 0.97 |  | 4.04 | 
C#Cc1cccc2cc(O)cc(-c3c(F)cc4c(N5CC6CCC(C5)N6)nc(OCC5(CN6CCC6)CC5)nc4c3F)c12 [Compound 1] |  | 5.41 | 58.3 | 247 | 
C#Cc1cccc2cc(O)cc(-c3c(F)cc4c(N5CC6CCC(C5)N6)nc(OCC5(CN6C7COCC6C7)CC5)nc4c3F)c12 [Compound 57] |  | 6.81 | 46.3 | 439 | 
C#Cc1cccc2cc(O)cc(-c3c(F)cc4c(N5CC6CCC(C5)N6)nc(OCC5(CN6Cc7ccccc7C6)CC5)nc4c3F)c12 [Compound 58] | 91 | 2.04 |  | 188 | 34
C#Cc1cccc2cc(O)cc(-c3c(F)cc4c(N5CC6CCC(C5)N6)nc(OCC5(CN6CC7CC6CO7)CC5)nc4c3F)c12 (centres unmarked) [Compound 13] |  | 12 |  |  | 
C#Cc1cccc2cc(O)cc(-c3c(F)cc4c(N5CC6CCC(C5)N6)nc(OCC5(CN6CCCC7(C6)CC7(F)F)CC5)nc4c3F)c12 (centres unmarked) [Compound 5] | 62.1 | 55.5 |  | 310 | 21
C#Cc1cccc2cc(O)cc(-c3c(F)cc4c(N5CC6CCC(C5)N6)nc(OCC5(CN6CC(O)C6)CC5)nc4c3F)c12 [Compound 26] |  | 2.58 | 56.3 | 113 | 
C#Cc1cccc2cc(O)cc(-c3ccc4c(N5CC6CCC(C5)N6)nc(OCC5(Cc6ccccn6)CC5)nc4c3F)c12 [Compound 23] |  | > 100 |  | > 10000 | 
C#Cc1cccc2cc(O)cc(-c3c(F)cc4c(N5CC6CCC(C5)N6)nc(OCC5(CN6CC(C)(O)C6)CC5)nc4c3F)c12 [Compound 29] |  | 3.5 | 25 | 71.6 | 
C#Cc1cccc2cc(O)cc(-c3c(F)cc4c(N5CC6CCC(C5)N6)nc(OCC5(CN6CCn7cncc7C6)CC5)nc4c3F)c12 [Compound 53] |  | 2.59 | 80.3 | 818 | 
C#Cc1c(F)ccc2cc(O)cc(-c3c(C(F)(F)F)cc4c(N5CC6CCC(C5)N6)nc(OCC5(CN6C[C@@H]7C[C@H]6CO7)CC5)nc4c3F)c12 [Compound 40] |  | 1.29 |  | 8.09 | 
C#Cc1cccc2cc(O)cc(-c3c(F)cc4c(N5CC6CCC(C5)N6)nc(OCC5(CN6CC7CC6CO7)CC5)nc4c3F)c12 (single isomer, unassigned) [Compound 36A] |  | > 100 |  | 20.2 | 
C#Cc1c(F)ccc2cc(O)cc(-c3c(Cl)cc4c(N5CC6CCC(C5)N6)nc(OCC5(CN6C[C@@H]7C[C@H]6CO7)CC5)nc4c3F)c12 [Compound 4] |  |  | 38.8 |  | 
C#Cc1c(F)ccc2cc(O)cc(-c3c(C#N)cc4c(N5CC6CCC(C5)N6)nc(OCC5(CN6C[C@@H]7C[C@H]6CO7)CC5)nc4c3F)c12 [Compound 41] |  | 1.04 |  | 7.18 | 
C#Cc1c(F)ccc2cc(O)cc(-c3c(Cl)cc4c(N5CC6CCC(C5)N6)nc(OCC5(CN6CC7CC6CO7)CC5)nc4c3F)c12 (single isomer, unassigned) [Compound 4A] |  | 244 |  | 1570 | 
